In patent US11547681B2, “N-acylethanolamide derivatives and uses thereof” (ELIEM THERAPEUTICS, INC., priority 2016, dated 2023):

Columns and labels:
in vitro = details: for Measured concentration of PEA (analyte) / % Remaining of Initial / microsomal CLint at 1 μM / half-life at 1 μM / Concentration (μM) of analyte PEA, 0 min / Concentration (μM) of analyte PEA, 10 min / Concentration (μM) of analyte PEA, 20 min / Concentration (μM) of analyte PEA, 30 min / Concentration (μM) of analyte PEA, 60 min / % Remaining of Initial (n = 1), 0 min / % Remaining of Initial (n = 1), 10 min / % Remaining of Initial (n = 1), 20 min / % Remaining of Initial (n = 1), 30 min / % Remaining of Initial (n = 1), 60 min / microsomal CLint / half-life: both, human; for Measured concentration of PEA (analyte) / % Remaining of Initial / Concentration (μM) of analyte PEA, 0 min / Concentration (μM) of analyte PEA, 10 min / Concentration (μM) of analyte PEA, 20 min / Concentration (μM) of analyte PEA, 30 min / Concentration (μM) of analyte PEA, 60 min / % Remaining of Initial (n = 1), 0 min / % Remaining of Initial (n = 1), 10 min / % Remaining of Initial (n = 1), 20 min / % Remaining of Initial (n = 1), 30 min / % Remaining of Initial (n = 1), 60 min: 1 μM
Method: The reaction mixture, minus cofactors, was prepared as described below. The test article was added into the reaction mixture at a final concentration of 1 μM. […] An aliquot of the reaction mixture (without cofactor cocktail) was equilibrated in a shaking water bath at 37° C. for 3 minutes. The reaction was initiated by the addition of cofactor cocktail, and the mixture was incubated in a shaking water bath at 37° C. Aliquots (100 μL) were withdrawn at 0, 10, 20, 30, and 60 minutes. All samples were immediately combined with 400 uL of icecold 50/50 acetonitrile/H2O containing 0.1% formic acid and internal standard to terminate the reaction. The samples were then mixed and centrifuged to precipitate proteins. Calibration standards were prepared in matched matrix. All samples and standards were assayed by LC-MS/MS using electrospray ionization for both the dosed prodrug I-9 and the expected drug (PEA). Analytical conditions are outlined in Appendix 4-1. The test article concentration at each time point was compared to the test article concentration at time 0 to determine the percent remaining at each time point. Half-lives were calculated using GraphPad software, fitting to single-phase exponential decay equation.
(§1) Reaction mixture, minus cofactors, was prepared as described below. Test article was added into the reaction mixture at a final concentration of 1 μM. […] An aliquot of the reaction mixture (without cofactor cocktail) was equilibrated in a shaking water bath at 37° C. for 3 minutes. The reaction was initiated by the addition of cofactor cocktail, and the mixture was incubated in a shaking water bath at 37° C. Aliquots (100 μL) were withdrawn at 0, 10, 20, 30, and 60 minutes. Test article samples were immediately combined with 300 μL of ice-cold acetonitrile containing 1% formic acid. Control samples were immediately combined with 400 μL of ice-cold 50/50 acetonitrile (ACN)/dH2O containing 0.1% formic acid and internal standard to terminate the reaction. Samples were then mixed and centrifuged to precipitate proteins. Calibration standards were prepared in matched matrix. Samples and standards were assayed by LC-MS/MS using electrospray ionization for both the dosed prodrug and the expected drug (PEA). Analytical conditions are outlined in Appendix 8-1. Test article concentration at each time point was compared to test article concentration at time 0 to determine the percent remaining at each time point. Halflives were calculated using GraphPad software, fitting to a single-phase exponential decay equation.
as §1, with “for 5” for “for 3”, “minutes. Reaction” for “minutes. The reaction”, “and” for “and the”, “both” for “both the”, “Appendix 10-1.” for “Appendix 8-1.”
Reaction mixture, minus cofactors, was prepared as described below.

[1] = Plasma stability (37° C., pH 7.4), dog; format: in vitro ADME, Beagle dog; details: for % Remaining of Initial / % Remaining of Initial (n = 1), 0 min / % Remaining of Initial (n = 1), 15 min / % Remaining of Initial (n = 1), 30 min / % Remaining of Initial (n = 1), 60 min / % Remaining of Initial (n = 1), 120 min: dog plasma; for % Remaining of Initial: 1 μM, n = 1; for half-life at 1 μM: male, Beagle, dog, plasma, pH 7.4, dog plasma; for % Remaining of Initial (n = 1), 0 min: pH 7.4, 0 min; for % Remaining of Initial (n = 1), 15 min: pH 7.4, 15 min; for % Remaining of Initial (n = 1), 30 min: pH 7.4, 30 min; for % Remaining of Initial (n = 1), 60 min: pH 7.4, 60 min; for % Remaining of Initial (n = 1), 120 min: pH 7.4, 120 min
Method: (§2) Studies were carried out in mixed-gender human plasma (Lot #GLP530-5), male Sprague-Dawley rat (Lot #RAT297944, RAT313140), male CD-1 mouse (Lot #MSE237700), and male Beagle dog (Lot #BGL87670, BGL82614), collected on sodium heparin. Plasma was adjusted to pH 7.4 prior to initiating the experiments. DMSO stocks were first prepared for the test articles. Aliquots of the DMSO solutions were dosed into 700 μL of plasma, which had been pre-warmed to 37° C., at a final test article concentration of 1 μM. […] Samples were stored at 4° C. until the end of the experiment. After the final time point was sampled, the plate was mixed and then centrifuged at 3,000 rpm for 10 minutes. Calibration standards were prepared in matched matrix. […] Analytical conditions are outlined in Appendix 8-1.
as §2, with “#AS1650-2),” for “#GLP530-5),”, “#RAT297944),” for “#RAT297944, RAT313140),”, “CD-I” for “CD-1”, “#BGL91384),” for “#BGL87670, BGL82614),”, “10-1.” for “8-1.”
Studies were carried out in mixed-gender human plasma (Lot #AS1650-2), male Sprague-Dawley rat (Lot #RAT297944), male CD-1 mouse (Lot #MSE237700), and male Beagle dog (Lot #BGL91384), collected on sodium heparin. Plasma was adjusted to pH 7.4 prior to initiating the experiments. DMSO stocks were first prepared for test articles. […] Samples were stored at 4° C. until the end of experiment. After the final time point was sampled, the plate was mixed and then centrifuged at 3,000 rpm for 10 minutes. Calibration standards were prepared in matched matrix. […] Analytical conditions are outlined in Appendix 13-1.
Studies were carried out in mixed-gender human plasma (Lot #AS 1650-2), male Sprague-Dawley rat (Lot #RAT320835), male CD-1 mouse (Lot #MSE260693), and 6 male Beagle dog (Lot #BGL91384), on sodium heparin. Plasma was adjusted to pH 7.4 prior to initiating the experiments. DMSO stocks were first prepared for the test articles. Aliquots of the DMSO solutions were dosed into 700 μL of plasma, which had been pre-warmed to 37° C., at a final test article concentration of 1 μM. […] Samples were stored at 4° C. until the end of the experiment. After the final time point was sampled, the plate was mixed and then centrifuged at 3,000 rpm for 10 minutes. Calibration standards were prepared in matched matrix. […] Analytical conditions are outlined in Appendix 17-1.

[2] = test article 1 μM, 37° C., pH 7.4

| SMILES | Measured concentration of PEA (analyte) (in vitro; 0 min) | Measured concentration of PEA (analyte) (in vitro; 10 min) | Measured concentration of PEA (analyte) (in vitro; 20 min) | Measured concentration of PEA (analyte) (in vitro; 30 min) | Measured concentration of PEA (analyte) (in vitro; 60 min) | % Remaining of Initial (in vitro; s9, 0 h) | % Remaining of Initial (in vitro; s9, 10 min) | % Remaining of Initial (in vitro; s9, 20 min) | % Remaining of Initial (in vitro; s9, 0.5 h) | % Remaining of Initial (in vitro; s9, 1 h) | microsomal CLint at 1 μM (in vitro; s9, CLint) | half-life at 1 μM (in vitro; s9, Half-life) | % Remaining of Initial ([1]; 0 min) | % Remaining of Initial ([1]; 15 min) | % Remaining of Initial ([1]; 30 min) | % Remaining of Initial ([1]; 60 min) | % Remaining of Initial ([1]; 120 min) | half-life at 1 μM [1] | Concentration (μM) of analyte PEA, 0 min (in vitro; 0 min) | Concentration (μM) of analyte PEA, 10 min (in vitro; 10 min) | further results |
| --- | --- | --- | --- | --- | --- | --- | --- | --- | --- | --- | --- | --- | --- | --- | --- | --- | --- | --- | --- | --- | --- |
| CCCCCCCCCCCCCCCC(=O)NCCOC(=O)CCC(=O)OC(CO)CO [Compound I-8] | 0.021 µM | 0.32 µM | 0.39 µM | 0.38 µM | 0.38 µM | 100% | 31% | 7.0% | 1.8% | <1.0% | > 69.3 µL/min/mg | < 10 min | 100% | <1.0% | <1.0% | <1.0% | <1.0% | < 1 min |  |  |  |
| CCCCCCCCCCCCCCCC(=O)NCCOC(=O)CCC(=O)OC(COC(=O)CCC)COC(=O)CCC [Compound I-16] | 0 µM | 0.17 µM | 0.29 µM | 0.33 µM | 0.32 µM | 100% | 3.2% | <1.0% | <1.0% | <1.0% | > 69.3 µL/min/mg | < 10 min | 100% | 91% | 65% | 39% | 13% | 44 min |  |  |  |
| CCCCCCCCCCCCCCCC(=O)NCCOC(=O)CCC(=O)OC[C@H]1O[C@@](CO)(O[C@H]2O[C@H](CO)[C@@H](O)[C@H](O)[C@H]2O)[C@@H](O)[C@@H]1O [Compound I-7] |  |  |  |  |  |  |  |  |  |  |  |  |  |  |  |  |  |  | 0.090 µM | 0.46 µM | Concentration (μM) of analyte PEA, 20 min (in vitro; 20 min): 0.62 µM; Concentration (μM) of analyte PEA, 30 min (in vitro; 30 min): 0.63 µM; Concentration (μM) of analyte PEA, 60 min (in vitro; 60 min): 0.48 µM; % Remaining of Initial (n = 1), 0 min (in vitro; s9, 0 h): 100%; % Remaining of Initial (n = 1), 10 min (in vitro; s9, 10 min): 46%; % Remaining of Initial (n = 1), 20 min (in vitro; s9, 20 min): 22%; % Remaining of Initial (n = 1), 30 min (in vitro; s9, 0.5 h): 9.8%; % Remaining of Initial (n = 1), 60 min (in vitro; s9, 1 h): 3.8%; % Remaining of Initial (n = 1), 0 min ([1]; test article 1 μM, 37° C.): 100%; % Remaining of Initial (n = 1), 15 min ([1]; test article 1 μM, 37° C.): <1.0%; % Remaining of Initial (n = 1), 30 min ([1]; test article 1 μM, 37° C.): <1.0%; % Remaining of Initial (n = 1), 60 min ([1]; test article 1 μM, 37° C.): <1.0%; % Remaining of Initial (n = 1), 120 min ([1]; test article 1 μM, 37° C.): <1.0%; half-life at 1 μM [1, 2]: < 1 min |
| CCCCCCCCCCCCCCCC(=O)NCCOC(=O)CCC [Compound I-2] |  |  |  |  |  |  |  |  |  |  |  |  |  |  |  |  |  |  | 0.011 µM | 0.057 µM | Concentration (μM) of analyte PEA, 20 min (in vitro; 20 min): 0.075 µM; Concentration (μM) of analyte PEA, 30 min (in vitro; 30 min): 0.067 µM; Concentration (μM) of analyte PEA, 60 min (in vitro; 60 min): 0.11 µM; % Remaining of Initial (n = 1), 0 min (in vitro; s9, 0 h): 100%; % Remaining of Initial (n = 1), 10 min (in vitro; s9, 10 min): 73%; % Remaining of Initial (n = 1), 20 min (in vitro; s9, 20 min): 41%; % Remaining of Initial (n = 1), 30 min (in vitro; s9, 0.5 h): 28%; % Remaining of Initial (n = 1), 60 min (in vitro; s9, 1 h): 9.6%; % Remaining of Initial (n = 1), 0 min ([1]; test article 1 μM, 37° C.): 100%; % Remaining of Initial (n = 1), 15 min ([1]; test article 1 μM, 37° C.): 95%; % Remaining of Initial (n = 1), 30 min ([1]; test article 1 μM, 37° C.): 71%; % Remaining of Initial (n = 1), 60 min ([1]; test article 1 μM, 37° C.): 54%; % Remaining of Initial (n = 1), 120 min ([1]; test article 1 μM, 37° C.): 24%; half-life at 1 μM [1, 2]: 61 min |
| C[C@]12CC[C@H]3[C@@H](CCC4=CC(=O)CC[C@@]43C)[C@@H]1CC[C@@H]2O [Testosterone, testosterone, reference compound] |  |  |  |  |  |  |  |  |  |  |  |  |  |  |  |  |  |  |  |  | microsomal CLint (in vitro; s9, CLint, Control Compound, Human intestinal S9 fraction): 50.9 µL/min/mg; microsomal CLint (in vitro; s9, CLint, Human intestinal S9 fraction, control compound): 50.9 µL/min/mg; microsomal CLint (in vitro; s9, Clint, control compound, Example 4 control run): 26.9 µL/min/mg; half-life (in vitro; s9, Half-life (min), control compound, human intestinal S9 fraction): 7.8 min; half-life (in vitro; s9, Half-life, control compound, Example 4 control run): 26 min; half-life (in vitro; s9, Half-life, control compound, human intestinal S9 fraction): 4.8 min; CLin (in vitro; control compound, human intestinal S9 fraction): 0.144 ml/min/mg protein |
